How the values were obtained:
[1] = target: T1, Human immunodeficiency virus type 1 protease (Human immunodeficiency virus 1, UniProt Q72874); assay: Tested for the inhibitory activity against HIV protease
Pepsin A [2] = target: T2, Pepsin A (Sus scrofa, UniProt P00791); assay: Tested for the inhibitory activity against pepsin
[3] = (§1) Tested for the inhibitory activity against Carboxypeptidase A (mixture of diastereomers)
[4] = as §1; remark: listed apart in the source
Pepsin A [5] = target: T2, Pepsin A; assay: Tested for the inhibitory activity against pepsin (First pure eluting diastereomer)
[6] = target: T1, Human immunodeficiency virus type 1 protease; assay: Tested for the inhibitory activity against HIV protease (First pure eluting diastereomer)
Pepsin A [7] = target: T2, Pepsin A; assay: Tested for the inhibitory activity against pepsin (Second pure eluting diastereomer )
[8] = target: T1, Human immunodeficiency virus type 1 protease; assay: Tested for the inhibitory activity against HIV protease (Second pure eluting diastereomer )

T2 sequence (P00791 whole entry): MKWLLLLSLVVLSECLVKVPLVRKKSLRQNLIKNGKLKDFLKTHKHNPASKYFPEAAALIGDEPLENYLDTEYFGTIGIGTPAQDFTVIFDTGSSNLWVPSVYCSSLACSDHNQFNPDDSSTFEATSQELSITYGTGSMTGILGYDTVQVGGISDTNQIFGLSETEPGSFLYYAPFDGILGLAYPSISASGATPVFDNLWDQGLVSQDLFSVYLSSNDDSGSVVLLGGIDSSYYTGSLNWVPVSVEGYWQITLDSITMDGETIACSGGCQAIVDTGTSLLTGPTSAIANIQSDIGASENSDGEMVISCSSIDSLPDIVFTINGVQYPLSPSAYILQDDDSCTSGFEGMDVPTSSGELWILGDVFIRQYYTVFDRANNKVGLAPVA

Row | Structure (SMILES) | IC50 [1] | IC50 (Pepsin A [2]) | other results
1 | COC(=O)[C@H](Cc1ccccc1)NC(=O)CCc1ccccc1 | > 3000 µM | > 3000 µM | –
2 | O=C(CCc1ccccc1)NCC(=O)OCc1ccccc1 | > 3000 µM | > 3000 µM | –
3 | N[S+]([O-])(CCc1ccccc1)=NCC(=O)OCc1ccccc1 (configuration not stated) | > 5000 µM | 700 µM | –
4 | N[S+]([O-])(CCc1ccccc1)=N[C@@H](Cc1ccccc1)C(=O)O (some centres not stated) | – | – | IC50 [3]: 20 µM
5 | O=C(CCc1ccccc1)N[C@@H](Cc1ccccc1)C(=O)O | – | – | Km [4]: 2.1
6 | COC(=O)[C@H](Cc1ccccc1)N=[S+](N)([O-])CCc1ccccc1 (some centres not stated) | – | – | IC50 (Pepsin A [5]): 700 µM; IC50 [6]: 1000 µM; IC50 (Pepsin A [7]): 700 µM; IC50 [8]: > 5000 µM

From ChEMBL document CHEMBL1132391, “The sulfonimidamide as a novel transition state analog for aspartic acid and metallo proteases” (Bioorg Med Chem Lett, 1999)
